The text below walks through data of patent US7947706B2, “Substituted pyrrolopyridines, compositions containing them, manufacturing process therefor and use thereof” (Sanofi-Aventis Deutschland GmbH, priority 2005, dated 2011).

For `Cc1ccc(C)c(NC(=O)Nc2ccc(-c3c(C(N)=O)[nH]c4cnccc34)cc2)c1` [Example 46, 3-{4-[3-(2,5-Dimethylphenyl)ureido]phenyl}-1H-pyrrolo[2,3-c]pyridine-2-carboxamide], the melting point came to 261 °C.

On to `NC(=O)c1[nH]c2cnccc2c1-c1ccc(NC(=O)Nc2ccccc2F)cc1` [Example 47, 3-{4-[3-(2-Fluorophenyl)ureido]phenyl}-1H-pyrrolo[2,3-c]-pyridine-2-carboxamide], for which the melting point came out at 242 °C.

`NC(=O)c1[nH]c2cnccc2c1-c1ccc(NC(=O)Nc2cccc(F)c2)cc1` [Example 48, 3-{4-[3-(3-Fluorophenyl)ureido]phenyl}-1H-pyrrolo[2,3-c]-pyridine-2-carboxamide] yielded a melting point of 252 °C.

The molecule `NC(=O)c1[nH]c2cnccc2c1-c1ccc(NC(=O)Nc2cccc(C(F)(F)F)c2F)cc1` [Example 49, 3-{4-[3-(2-Fluoro-3-trifluoromethylphenyl)ureido]phenyl}-1H-pyrrolo[2,3-c]pyridine-2-carboxamide] registered a melting point of 240 °C.

With `NC(=O)c1[nH]c2cnccc2c1-c1ccc(NC(=O)Nc2cc(F)cc(C(F)(F)F)c2)cc1` [Example 50, 3-{4-[3-(3-Fluoro-5-trifluoromethylphenyl)ureido]phenyl}-1H-pyrrolo[2,3-c]pyridine-2-carboxamide], the melting point is 261 °C.

`NC(=O)c1[nH]c2cnccc2c1-c1ccc(NC(=O)Nc2ccc(F)c(C(F)(F)F)c2)cc1` [Example 51, 3-{4-[3-(4-Fluoro-3-trifluoromethylphenyl)ureido]phenyl}-1H-pyrrolo[2,3-c]pyridine-2-carboxamide] gave a melting point of 201 °C.

Take `Cc1ccc(NC(=O)Nc2ccc(-c3c(C(N)=O)[nH]c4cnccc34)cc2)cc1C(F)(F)F` [Example 52, 3-{4-[3-(4-Methyl-3-trifluoromethylphenyl)ureido]phenyl}-1H-pyrrolo[2,3-c]pyridine-2-carboxamide]: the melting point stood at 199 °C.

In turn, `Cc1ccccc1NC(=O)Nc1ccc(-c2c(C(N)=O)[nH]c3cnccc23)cc1` [Example 56, 3-[4-(3-o-Tolylureido)phenyl]-1H-pyrrolo[2,3-c]pyridine-2-carboxamide] showed a melting point of 270 °C.

On to `COc1ccc(NC(=O)Nc2ccc(-c3c(C(N)=O)[nH]c4cnccc34)cc2)cc1` [Example 57, 3-{4-[3-(4-Methoxyphenyl)ureido]phenyl}-1H-pyrrolo[2,3-c]pyridine-2-carboxamide], for which the melting point amounted to 275 °C.

`NC(=O)c1[nH]c2cnccc2c1-c1ccc(NC(=O)Nc2ccc(OC(F)F)c(Cl)c2)cc1` [Example 58, 3-{4-[3-(3-Chloro-4-difluoromethoxyphenyl)ureido]phenyl}-1H-pyrrolo[2,3-c]pyridine-2-carboxamide] showed a melting point of 267 °C.

In the case of `Cc1cc(C)cc(NC(=O)Nc2ccc(-c3c(C(N)=O)[nH]c4cnccc34)cc2)c1` [Example 59, 3-{4-[3-(3,5-Dimethylphenyl)ureido]phenyl}-1H-pyrrolo[2,3-c]pyridine-2-carboxamide], the melting point was 188 °C.

For the molecule `CCc1cccc(NC(=O)Nc2ccc(-c3c(C(N)=O)[nH]c4cnccc34)cc2)c1` [Example 60, 3-{4-[3-(3-Ethylphenyl)ureido]phenyl}-1H-pyrrolo[2,3-c]-pyridine-2-carboxamide], the melting point was 257 °C.

Molecule `CCc1cccc(NC(=O)Nc2ccc(-c3c(C(N)=O)[nH]c4ncccc34)cc2)c1` [Example 61, 3-{4-[3-(3-Ethylphenyl)ureido]phenyl}-1H-pyrrolo[2,3-b]-pyridine-2-carboxamide] registered a melting point of 254 °C.
